Experimental data reported in paper PMC12298883, “Discovery of Cyclopentane-Based Phospholipids as Miltefosine Analogs with Superior Potency and Enhanced Selectivity Against Naegleria fowleri” (Pharmaceuticals, 2025).

Assays:
C6 glial cells = assay: Cytotoxicity assay for C6 cells (CellTiter-Blue); format: cell-based; details: C6 rat glial cells, viability; mean ± SD
Protocol: A viability assay was performed to evaluate the inhibitory activity of the tested compounds by determining their IC50 values against N. fowleri, using miltefosine as a reference drug. To assess the selectivity of the tested compounds relative to miltefosine, cytotoxic values that reduced the viability of C6 glial cells by 50% were established.
N. fowleri Carter NF69 strain (ATCC 30215; American Type Culture Collection, Manassas, VA, USA) was used. Amoeba trophozoites were cultured and maintained in Nelson’s medium containing 5% foetal bovine serum (FBS; Gibco, Grand Island, NY, USA) and 1% penicillin/streptomycin (P/S; Gibco, Grand Island, NY, USA) at 37 °C [56]. C6 rat glial cells (C6 cells; ATCC CCL-107) were cultured in Dulbecco’s Modified Eagle’s Medium (DMEM; Gibco, Grand Island, NY, USA) supplemented with 10% FBS (Gibco, Grand Island, NY, USA) and 1% P/S (Gibco, Grand Island, NY, USA) at 37 °C in a humidified incubator under 5% CO2 atmosphere.
The potential cytotoxicity of tested compounds and miltefosine in C6 cells was analysed. The cells were seeded in a 96-well microplate (Thermo Fisher Scientific; 2 × 10^4 cells/well), respectively, and incubated overnight until 80% confluent. Serially diluted tested compounds and miltefosine were treated to the cells as described above. Morphological changes of the cells were observed by microscopic examination. Cell viability was determined using the CellTiter-Blue® Cell viability assay (Promega, […], USA). The cytotoxic concentrations 50 (CC50) of tested compounds and miltefosine were calculated using GraphPad Prism 9.1.0 software (GraphPad Software, San Diego, CA, USA). The […] (SI) was determined by the ratio between CC50 and IC50. Cells treated with 0.1% DMSO, which was confirmed not to alter the morphology of the cells by microscopic examination, were used as controls with 100% cell viability.

N. fowleri trophozoites = assay: Apoptosis/necrosis fluorescence staining assay; format: cell-based, Naegleria fowleri; details: at IC90, 48 h; apopxin green, 7-AAD red, cytocalcein blue
Source text: While apoptosis was previously believed to occur in multicellular metazoans, it was discovered that ancient forms of apoptotic-like cell death, which mimics some characteristics of apoptosis, can also trigger death in protozoa. In fact, apoptosis-like death is one of the programmed cell death molecular mechanisms in protozoa that also include necrosis. To further understand how compounds 2a, 3b and 3d trigger the death of N. fowleri in comparison to miltefosine, an evaluation of apoptosis and necrosis was conducted at IC90 of the tested compounds for 48 h. […] The diminished cytocalceine blue fluorescence, coupled with the surge in green fluorescence signifying apoptosis after treatment with the compounds (Figure 5), clearly indicates the reduction in viable cells and the initiation of programmed cell death. The absence of 7-AAD red fluorescence further reinforces the lack of detectable necrosis. This is a desirable trait for potential therapeutic agents, as necrosis, unlike apoptosis, can trigger inflammation due to the uncontrolled release of intracellular contents.
Figure 5 Apoptosis/necrosis assay. A fluorescence staining assay was performed using N. fowleri trophozoites treated with compounds 2a, 3b, 3d, and miltefosine (MF) as a reference; NC, negative controls with 0.1% DMSO treatment. Blue fluorescence representing living cells stained with cytocalcein (DAPI channel, Ex/Em = 405/450 nm). Green apopxin stains apoptotic cells to show green fluorescence (GFP channel, Ex/Em = 490/525 nm). 7-Amino Actinomycin D (7-AAD) stains late apoptotic cells and necrotic cells to show red fluorescence (RFP channel, Ex/Em = 550/650 nm). Images were representatives of cell populations in three individual experiments. Size bar: 10 µm.
Apoptosis/necrosis in treated N. fowleri trophozoites was assessed using the Apoptosis/Necrosis Detection Kit (Abcam, Cambridge, UK). N. fowleri trophozoites (5 × 10^4 cells/well) were seeded in a 96-well black/clear bottom plate (Thermo Fisher Scientific). Compounds 2a, 3b and 3d were treated to the cells at the concentrations of IC90 and incubated at 37 °C for 48 h. The apoptosis/necrosis assay was performed as described previously. Amoebae treated with 0.1% DMSO and miltefosine (IC90) were used as the negative controls (NC) and the positive controls, respectively.

Row | SMILES | CC50 (C6 glial cells) | mode of cell death (apoptosis/necrosis staining) (N. fowleri trophozoites)
1 | CCCCCCCCCCCCCCCCOP(=O)([O-])OCC[N+](C)(C)C [Miltefosine] | 158.9 ± 1.49 µM | apoptosis-like death, rather than necrosis
2 | CCCCCCCCCCCCCCCCCCCCCCOC[C@@H]1CCC[C@H]1OP(=O)([O-])OCC[N+](C)(C)C [Compound 3d] | – | apoptosis-like death, rather than necrosis
3 | CCCCCCCCCCCCCO[C@@H]1CCC[C@H]1COP(=O)([O-])OCC[N+](C)(C)C [Compound 2a] | – | apoptosis-like death, rather than necrosis
4 | CCCCCCCCCCCCCOC[C@@H]1CCC[C@H]1OP(=O)([O-])OCC[N+](C)(C)C [Compound 3b] | – | apoptosis-like death, rather than necrosis
